# Assay results from PubChem BioAssay (NCI).
#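 Where inhibition never reached the appropriate level, the endpoint shown equals the highest concentration tested. Otherwise, values were interpolated linearly from a five-concentration, 48-hour dose response in 96-well plates. TGI: concentration producing complete growth inhibition.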
# Legend:
# Test in all cases: NCI tumour cell line growth inhibition, 48 h
# [1] = tested on: DU-145 prostate
# [2] = tested on: HOP-62 NSCLC
# [3] = tested on: TK-10 renal
# [4] = tested on: SNB-19 CNS
# [5] = tested on: SK-MEL-2 melanoma
# [6] = tested on: OVCAR-3 ovarian
# [7] = tested on: HCC-2998 colon
# [8] = tested on: LOX IMVI melanoma
# [9] = tested on: BT-549 breast
# [10] = tested on: RXF 393 renal
# [11] = tested on: A498 renal
# [12] = tested on: HCT-116 colon
# [13] = tested on: OVCAR-8 ovarian
# [14] = tested on: OVCAR-5 ovarian
# [15] = tested on: SF-268 CNS
# [16] = tested on: NCI-H522 lung
# [17] = tested on: MALME-3M melanoma
# [18] = tested on: NCI-H226 lung
# [19] = tested on: HL-60(TB) leukemia
# [20] = tested on: HS 578T breast
# [21] = tested on: HT29 colon
# [22] = tested on: ACHN renal
# [23] = tested on: T-47D breast
# [24] = tested on: UACC-62 melanoma
# [25] = tested on: SK-OV-3 ovarian
# [26] = tested on: K-562 leukemia
# [27] = tested on: COLO 205 colon
# [28] = tested on: SF-539 CNS
# [29] = tested on: SK-MEL-28 melanoma
# [30] = tested on: IGROV1 ovarian
# [31] = tested on: 786-0 renal
# [32] = tested on: SK-MEL-5 melanoma
# [33] = tested on: MCF7 breast
# [34] = tested on: MDA-MB-231 breast
# [35] = tested on: KM12 colon
# [36] = tested on: RPMI-8226 leukemia
# [37] = tested on: NCI-H460 lung
# [38] = tested on: SW-620 colon
# [39] = tested on: SF-295 CNS
# [40] = tested on: UO-31 renal
# [41] = tested on: NCI/ADR-RES ovarian
# [42] = tested on: SNB-75 CNS
# [43] = tested on: OVCAR-4 ovarian
# [44] = tested on: M14 melanoma
# [45] = tested on: HCT-15 colon
# [46] = tested on: U251 CNS
# [47] = tested on: UACC-257 melanoma
# [48] = tested on: HOP-92 NSCLC
# [49] = tested on: A549 NSCLC
# [50] = tested on: SN12C renal
# [51] = tested on: SR leukemia
# [52] = tested on: MDA-N
# [53] = tested on: CCRF-CEM leukemia
# [54] = tested on: PC-3 prostate
# [55] = tested on: EKVX NSCLC
# [56] = tested on: MDA-MB-435
# [57] = tested on: NCI-H23 lung
# [58] = tested on: CAKI-1 renal
# [59] = tested on: MOLT-4 leukemia
smiles,measurement,setting,value
Cc1nc(-c2ccccc2)cn2c1nc1ccccc12,TGI,[1],> 100 µM
same,TGI,[2],49.6 µM
same,TGI,[3],> 74.7 µM
same,TGI,[4],> 76.2 µM
same,TGI,[5],43.5 µM
same,TGI,[6],69.9 µM
same,TGI,[7],> 100 µM
same,TGI,[8],> 31.6 µM
same,TGI,[9],38.9 µM
same,TGI,[10],55.5 µM
same,TGI,[11],23.5 µM
same,TGI,[12],> 70.9 µM
same,TGI,[13],37.3 µM
same,TGI,[14],> 31.6 µM
same,TGI,[15],> 66.8 µM
same,TGI,[16],> 66.8 µM
same,TGI,[17],48.9 µM
same,TGI,[18],41.1 µM
same,TGI,[19],> 100 µM
same,TGI,[20],> 87.5 µM
same,TGI,[21],> 56.4 µM
same,TGI,[22],49.4 µM
same,TGI,[23],> 24.9 µM
same,TGI,[24],31.7 µM
same,TGI,[25],26 µM
same,TGI,[26],> 100 µM
same,TGI,[27],> 100 µM
same,TGI,[28],53 µM
same,TGI,[29],72.8 µM
same,TGI,[30],57.1 µM
same,TGI,[31],50.9 µM
same,TGI,[32],28.6 µM
same,TGI,[33],23.4 µM
same,TGI,[34],> 100 µM
same,TGI,[35],> 70.3 µM
same,TGI,[36],> 100 µM
same,TGI,[37],37.1 µM
same,TGI,[38],99.1 µM
same,TGI,[39],> 65.8 µM
same,TGI,[40],46.5 µM
same,TGI,[41],55.7 µM
same,TGI,[42],> 52.2 µM
same,TGI,[43],65.4 µM
same,TGI,[44],> 82.8 µM
same,TGI,[45],> 68.5 µM
same,TGI,[46],36.3 µM
same,TGI,[47],> 82.3 µM
same,TGI,[48],62.6 µM
same,TGI,[49],34.8 µM
same,TGI,[50],> 84.7 µM
same,TGI,[51],> 100 µM
same,TGI,[52],43.5 µM
same,TGI,[53],> 100 µM
same,TGI,[54],69.5 µM
same,TGI,[55],> 59.6 µM
same,TGI,[56],36.9 µM
same,TGI,[57],> 77.7 µM
same,TGI,[58],62.1 µM
same,TGI,[59],> 100 µM
CC1(C)Oc2ccc3ccc(=O)oc3c2C(O)C1O (stereo not given),TGI,[1],> 100 µM
same,TGI,[2],> 100 µM
same,TGI,[4],> 100 µM
same,TGI,[5],> 100 µM
same,TGI,[6],> 100 µM
same,TGI,[7],> 100 µM
same,TGI,[8],> 100 µM
same,TGI,[9],60.9 µM
same,TGI,[10],> 100 µM
same,TGI,[11],> 100 µM
same,TGI,[12],> 100 µM
same,TGI,[13],> 100 µM
same,TGI,[14],> 100 µM
same,TGI,[15],> 100 µM
same,TGI,[16],> 100 µM
same,TGI,[17],> 100 µM
same,TGI,[18],> 100 µM
same,TGI,[19],> 100 µM
same,TGI,[20],> 100 µM
same,TGI,[21],71.3 µM
same,TGI,[22],> 100 µM
same,TGI,[23],> 100 µM
same,TGI,[24],> 100 µM
same,TGI,[26],> 100 µM
same,TGI,[27],45.1 µM
same,TGI,[28],47.8 µM
same,TGI,[29],> 100 µM
same,TGI,[30],> 100 µM
same,TGI,[31],> 100 µM
same,TGI,[32],29.4 µM
same,TGI,[33],> 100 µM
same,TGI,[34],> 100 µM
same,TGI,[35],> 100 µM
same,TGI,[36],97.9 µM
same,TGI,[37],> 100 µM
same,TGI,[38],> 100 µM
same,TGI,[39],> 100 µM
same,TGI,[40],> 100 µM
same,TGI,[41],> 100 µM
same,TGI,[42],> 100 µM
same,TGI,[43],> 100 µM
same,TGI,[44],> 100 µM
same,TGI,[45],> 100 µM
same,TGI,[46],> 100 µM
same,TGI,[47],94.9 µM
same,TGI,[48],> 100 µM
same,TGI,[49],> 100 µM
same,TGI,[50],> 100 µM
same,TGI,[51],> 100 µM
same,TGI,[52],> 100 µM
same,TGI,[53],96.9 µM
same,TGI,[54],> 100 µM
same,TGI,[55],> 100 µM
same,TGI,[56],> 100 µM
same,TGI,[57],> 100 µM
same,TGI,[58],> 100 µM
same,TGI,[59],53 µM
C#CC1(O)CCC2[C@@H]3CCc4cc(Oc5nc(F)nc(-c6c(C)c(C(=O)OCC)n7ccccc67)n5)ccc4C3CC[C@@]21C (stereo not given in full),TGI,[1],> 100 µM
same,TGI,[2],> 100 µM
same,TGI,[3],> 100 µM
same,TGI,[4],> 100 µM
same,TGI,[5],> 100 µM
same,TGI,[6],> 100 µM
same,TGI,[7],> 100 µM
same,TGI,[8],> 100 µM
same,TGI,[9],> 100 µM
same,TGI,[10],> 100 µM
same,TGI,[11],> 100 µM
same,TGI,[12],> 100 µM
same,TGI,[13],> 100 µM
same,TGI,[14],> 100 µM
same,TGI,[15],> 100 µM
same,TGI,[16],> 100 µM
same,TGI,[17],> 100 µM
same,TGI,[18],> 100 µM
same,TGI,[19],> 100 µM
same,TGI,[20],> 100 µM
same,TGI,[21],> 100 µM
same,TGI,[22],> 100 µM
same,TGI,[23],> 100 µM
same,TGI,[24],> 100 µM
same,TGI,[25],> 100 µM
same,TGI,[26],> 100 µM
same,TGI,[27],> 100 µM
same,TGI,[28],> 100 µM
same,TGI,[29],> 100 µM
same,TGI,[30],> 100 µM
same,TGI,[31],> 100 µM
same,TGI,[32],> 100 µM
same,TGI,[33],> 100 µM
same,TGI,[34],> 100 µM
same,TGI,[35],> 100 µM
same,TGI,[36],> 100 µM
same,TGI,[37],> 100 µM
same,TGI,[38],> 100 µM
same,TGI,[39],> 100 µM
same,TGI,[40],> 100 µM
same,TGI,[41],> 100 µM
same,TGI,[42],> 100 µM
same,TGI,[43],> 100 µM
same,TGI,[44],> 100 µM
same,TGI,[45],> 100 µM
same,TGI,[46],> 100 µM
same,TGI,[47],> 100 µM
same,TGI,[48],> 100 µM
same,TGI,[49],> 100 µM
same,TGI,[50],> 100 µM
same,TGI,[51],> 100 µM
same,TGI,[52],> 100 µM
same,TGI,[53],> 100 µM
same,TGI,[54],> 100 µM
same,TGI,[55],> 100 µM
same,TGI,[56],> 100 µM
same,TGI,[57],> 100 µM
same,TGI,[58],> 100 µM
same,TGI,[59],> 100 µM
